From US9045524B2, “Selective caspase inhibitors and uses thereof” (NOVAGENESIS FOUNDATION, priority 2009, dated 2015)
Counter-ions that a name gives are not always drawn. Like-named read-outs stand apart in the source and are kept apart here. Square brackets hold non-standard residues; d marks the D form. Peptide text beside a SMILES is read from it. * marks the point of attachment. Phg = N[C@H](C(=O)O)c1ccccc1; Cbz = O=C(OCc1ccccc1)*; OtBu = CC(C)(C)O*

Key:
Caspase-1 = Caspase-1 (Homo sapiens (Human), UniProt P29466); experiment: Caspase-1 Inhibitor Drug Screening Kit, fluorometric (AFC liberation); type: biochemical; settings: 30-minute incubation at 37° C.; approximations of the average values; read-out: Caspase enzymatic activity, IC50 (uM) Caspase 1
Sequence of Caspase-1 (P29466 120-404): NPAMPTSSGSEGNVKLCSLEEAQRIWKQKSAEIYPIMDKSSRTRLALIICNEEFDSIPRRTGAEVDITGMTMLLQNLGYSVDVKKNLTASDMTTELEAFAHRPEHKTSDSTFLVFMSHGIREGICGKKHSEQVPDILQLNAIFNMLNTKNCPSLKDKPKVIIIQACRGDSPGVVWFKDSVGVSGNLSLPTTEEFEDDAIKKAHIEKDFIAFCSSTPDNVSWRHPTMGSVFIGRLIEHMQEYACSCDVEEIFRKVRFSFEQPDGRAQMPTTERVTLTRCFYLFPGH
Protocol: (§1) The level of inhibition of caspase-1, -3, -5, -7, -9 activity was determined by comparison of the relative fluorescence intensity in samples with or without the compound.

Caspase-3 = Caspase-3 (Homo sapiens (Human), UniProt P42574); experiment: Caspase-3 Inhibitor Drug Screening Kit, fluorometric (AFC liberation); type: biochemical
Sequence of Caspase-3 (P42574 29-277): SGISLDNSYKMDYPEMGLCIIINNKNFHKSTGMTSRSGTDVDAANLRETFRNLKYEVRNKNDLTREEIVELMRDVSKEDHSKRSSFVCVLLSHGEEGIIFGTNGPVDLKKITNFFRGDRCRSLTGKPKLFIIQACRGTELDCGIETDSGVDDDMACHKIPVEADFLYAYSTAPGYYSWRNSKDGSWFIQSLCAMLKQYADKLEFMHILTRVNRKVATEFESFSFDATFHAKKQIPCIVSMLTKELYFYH
Protocol: as §1

Caspase-5 = Caspase-5 (Homo sapiens (Human), UniProt P51878); experiment: Caspase-5 Inhibitor Drug Screening Kit, fluorometric (AFC liberation); type: biochemical; settings: 30-minute incubation at 37° C.; approximations of the average values; read-out: Caspase enzymatic activity, IC50 (uM) Caspase 5
Sequence of Caspase-5 (P51878 137-434): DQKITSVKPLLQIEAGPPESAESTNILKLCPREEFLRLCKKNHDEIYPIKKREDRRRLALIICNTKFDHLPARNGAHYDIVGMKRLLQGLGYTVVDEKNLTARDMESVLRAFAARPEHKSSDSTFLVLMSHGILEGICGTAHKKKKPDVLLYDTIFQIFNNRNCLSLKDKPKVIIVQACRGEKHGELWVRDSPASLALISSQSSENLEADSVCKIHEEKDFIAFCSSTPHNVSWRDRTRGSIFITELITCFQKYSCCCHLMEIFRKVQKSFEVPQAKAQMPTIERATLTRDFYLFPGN
Protocol: as §1

Caspase-7 = Caspase-7 (Homo sapiens (Human), UniProt P55210); experiment: Caspase-7 Inhibitor Drug Screening Kit, fluorometric (AFC liberation); type: biochemical; settings: 30-minute incubation at 37° C.; approximations of the average values; read-out: Caspase enzymatic activity, IC50 (uM) Caspase 7
Sequence of Caspase-7 (P55210 whole entry): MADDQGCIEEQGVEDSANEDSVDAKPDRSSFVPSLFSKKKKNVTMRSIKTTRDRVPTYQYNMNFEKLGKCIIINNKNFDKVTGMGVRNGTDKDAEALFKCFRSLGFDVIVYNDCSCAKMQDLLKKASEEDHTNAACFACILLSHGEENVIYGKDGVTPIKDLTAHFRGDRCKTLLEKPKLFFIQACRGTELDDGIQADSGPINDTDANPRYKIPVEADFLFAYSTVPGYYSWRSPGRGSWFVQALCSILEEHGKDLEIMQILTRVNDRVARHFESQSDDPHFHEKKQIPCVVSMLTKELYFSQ
Protocol: as §1

Caspase-9 = Caspase-9 (Homo sapiens (Human), UniProt P55211); experiment: Caspase-9 Inhibitor Drug Screening Kit, fluorometric (AFC liberation); type: biochemical; settings: 30-minute incubation at 37° C.; approximations of the average values; read-out: Caspase enzymatic activity, IC50 (uM) Caspase 9
Sequence of Caspase-9 (P55211 whole entry): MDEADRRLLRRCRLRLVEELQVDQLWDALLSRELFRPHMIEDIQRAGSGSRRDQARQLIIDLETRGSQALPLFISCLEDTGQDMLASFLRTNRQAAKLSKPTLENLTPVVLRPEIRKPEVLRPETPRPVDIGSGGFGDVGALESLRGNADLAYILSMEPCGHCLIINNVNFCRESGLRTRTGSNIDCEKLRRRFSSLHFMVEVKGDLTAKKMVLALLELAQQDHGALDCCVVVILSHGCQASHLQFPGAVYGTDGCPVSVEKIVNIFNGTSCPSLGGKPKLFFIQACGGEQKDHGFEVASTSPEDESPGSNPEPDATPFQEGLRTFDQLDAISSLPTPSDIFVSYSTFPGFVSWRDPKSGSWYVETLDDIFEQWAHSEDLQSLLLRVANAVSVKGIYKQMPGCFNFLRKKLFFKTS
Protocol: as §1

[1] = test system: proteolytic cleavage of PARP (poly ADP-ribose polymerase) in Hela cells; experiment: Inhibition of staurosporine-induced PARP cleavage in live Hela cells; type: cell-based; settings: for inhibition at 50 µM: Homo sapiens, HeLa
Protocol: To test the efficacy of caspase-3 inhibitors at the cellular level, the ability of selected compounds to inhibit the proteolytic cleavage of PARP (poly ADP-ribose polymerase) was evaluated in live Hela cells.
Briefly, in this assay Hela cells are seeded in 96 well plates and incubated for 4 hours with staurosporine, a well characterized inducer of apoptosis, alone or together with different concentrations of compound (50, 25, 10 and 3 uM). After formaldehyde-based fixation, the cells are stained with a fluorescein-labeled anti-cleaved PARP antibody (Cell signaling, Cat#: 9547) and counterstained with Hoechst33342 (Invitrogen, Cat#: H3570) to mark all nuclei. Fluorescence images are taken on a Cellomics™ microscope system (Thermo Scientific, Pittsburgh, USA) with the Hoechst stain in the blue channel and the cleaved PARP antibody stain in the green channel. The percentage of cleaved PARP positive cells is determined by calculating the ratio between nuclei with a cleaved PARP antibody staining above a certain threshold and all (Hoechst positive) nuclei. The efficacy of caspase-3 inhibition is determined by calculating the ratio between cleaved PARP positive cells after staurosporine incubation together with compounds and staurosporine incubation without compounds.

Glo3/7 = Glo3/7 assay; type: biochemical
[2] = 30-minute incubation at 37° C., approximations of the average values, read-out: Caspase enzymatic activity, IC50 (uM) Caspase 3
[3] = 4 h, read-out: % inhibition of PARP cleavage at 50 uM compound, Hela cells, staurosporine 4 hours, 50 uM compound
[4] = Hela cells, 50 uM, read-out: % of inhibition with compound relative to DEVDFMK

Row | IC50 (Caspase-1) | activity against caspase-3 (Caspase-3) | IC50 (Caspase-3; [2]) | IC50 (Caspase-5) | IC50 (Caspase-7) | IC50 (Caspase-9) | IC50 (Glo3/7) | IC50 (Caspase-3; read-out: IC50 caspase-3) | SMILES | inhibition at 50 µM [1, 3] | inhibition at 50 µM [1, 4] | effectivity in inhibiting PARP cleavage ([1]; Hela cells, staurosporine)
1 | > 3.33 µM |  | 0.1 µM | > 10 µM | 1.8 µM | > 3.33 µM | 1.4 µM |  | CC(C)[C@H](NC(=O)[C@@H](NC(=O)[C@H](CC(=O)O)NC(=O)OCc1ccccc1)c1ccccc1)C(=O)N[C@H](/C=C/S(=O)(=O)c1ccccc1)CC(=O)O [Compound 69, Z-Asp-Phg-Val-Asp-phenyl Vinylsulfone] | 20% | 35% | 
2 | > 10 µM |  |  | > 10 µM | 8.9 µM | > 10 µM | 0.3 µM |  | CC(C)[C@H](NC(=O)C(Cc1ccc2ccccc2n1)NC(=O)[C@H](CC(=O)O)NC(=O)OCc1ccccc1)C(=O)N[C@H](/C=C/S(C)(=O)=O)CC(=O)O (stereo partly shown) [Compound 71, Z-Asp-(D,L Ala(2′-quinolyl))-Val-Aspmethyl Vinylsulfone] | 20% | 35% | 
3 | > 3.33 µM |  | 0.03 µM | > 3.33 µM | 0.7 µM | > 3.33 µM | 0.04 µM |  | CC(C)[C@H](NC(=O)[C@H](Cc1ccc(O)cc1)NC(=O)[C@H](CC(=O)O)NC(=O)OCc1ccccc1)C(=O)N[C@H](/C=C/S(C)(=O)=O)CC(=O)O [Compound 76, Z-Asp-Tyr-Val-Aspmethyl vinyl sulfone] | > 50% |  | 
4 | 0.5 µM |  | 0.3 µM | > 3 µM | > 5 µM | 1.6 µM | 3.7 µM |  | CC(C)[C@H](NC(=O)[C@H](CCC(=O)O)NC(=O)[C@H](Cc1ccc(O)cc1)NC(=O)OCc1ccccc1)C(=O)N[C@H](/C=C/S(C)(=O)=O)CC(=O)O [Compound 82] | 15% | 15% | 
5 | > 3.33 µM |  | 0.03 µM | > 3.33 µM | 1 µM | > 3.33 µM | 0.3 µM |  | CC(C)[C@H](NC(=O)[C@H](Cc1ccccn1)NC(=O)[C@H](CC(=O)O)NC(=O)OCc1ccccc1)C(=O)N[C@H](/C=C/S(=O)(=O)c1ccccc1)CC(=O)O [Compound 85] |  | 45% | 
6 | > 3.33 µM | devoid of any activity | > 10 µM | > 3.33 µM | > 3.33 µM | > 3.33 µM | > 50 µM |  | CS(=O)(=O)/C=C/[C@@H](N)CC(=O)O.Cc1ccc(S(=O)(=O)O)cc1 [Compound 93, AspVSmethyl] | 15% | 25% | 
7 | 1.3 µM |  | > 10 µM | > 3.33 µM | > 10 µM | > 10 µM | > 50 µM |  | CC(C)[C@H](NC(=O)[C@H](Cc1ccc(O)cc1)NC(=O)OCc1ccccc1)C(=O)N[C@@H](C)C(=O)N[C@H](/C=C/S(=O)(=O)c1ccccc1)CC(=O)O [Compound 96, z-Tyr-Val-Ala-AspVS phenyl] | 1% | 2% | 

Continued, compound first:

Row | SMILES | IC50 (Caspase-1) | activity against caspase-3 (Caspase-3) | IC50 (Caspase-3; [2]) | IC50 (Caspase-5) | IC50 (Caspase-7) | IC50 (Caspase-9) | IC50 (Glo3/7) | IC50 (Caspase-3; read-out: IC50 caspase-3) | inhibition at 50 µM [1, 3] | inhibition at 50 µM [1, 4] | effectivity in inhibiting PARP cleavage ([1]; Hela cells, staurosporine)
8 | CC(C)[C@H](NC(=O)[C@@H](NC(=O)[C@H](CC(=O)OC(C)(C)C)NC(=O)OCc1ccccc1)c1ccccc1)C(=O)O [Compound 16, Z-Asp(β-tert-butyl)-Phg-Val-OH] (Cbz-Asp(OtBu)-[Phg]-Val-OH) | > 3.33 µM | devoid of any activity | > 2 µM | > 3.33 µM | > 3.33 µM | > 3.33 µM | > 50 µM |  | 13% | 23% | 
9 | CC(C)(C)OC(=O)C[C@H](N)/C=C/S(C)(=O)=O.Cc1ccc(S(=O)(=O)O)cc1 [Compound 33, Asp(β-tert-butyl)methyl Vinyl Sulfone Tosyl Salt] | > 3.33 µM | devoid of any activity | > 10 µM | > 3.33 µM | > 3.33 µM | > 3.33 µM | > 50 µM |  | 30% | 50% | 
10 | CC(C)(C)OC(=O)C[C@H](N)/C=C/S(=O)(=O)c1ccccc1 [Compound 37, Asp-vinyl Phenyl Sulfone Salt Form] | > 3.33 µM |  | > 2 µM | > 3.33 µM | > 3.33 µM | > 3.33 µM | > 50 µM |  | 20% | 35% | 
11 | CC(C)[C@H](NC(=O)[C@H](Cc1ccc2ccccc2n1)NC(=O)[C@H](CC(=O)O)NC(=O)OCc1ccccc1)C(=O)N[C@H](/C=C(\Cl)S(C)(=O)=O)CC(=O)O [Compound 48, Z-Asp-Ala(2′-quinolyl)-Val-Asp-achlorovinyl methylsulfone] | > 3.33 µM |  | 0.01 µM | > 3.33 µM | 0.4 µM | 1.2 µM | 0.1 µM | 0.008 to 0.03 µM |  |  | showing effectivity especially relative to DEVD-fmk
12 | Cc1ccc(S(=O)(=O)N[C@@H](Cc2ccc3ccccc3n2)C(=O)N[C@H](C(=O)N[C@H](/C=C(\Cl)S(C)(=O)=O)CC(=O)O)C(C)C)cc1 [Compound 50] | > 3.33 µM |  | > 3.33 µM | > 3.33 µM | > 3.33 µM | > 3.33 µM | 40 µM |  | 0% | 0% | 
13 | CC(C)[C@H](NC(=O)[C@H](Cc1ccc2ccccc2n1)NC(=O)[C@H](CC(=O)OC(C)(C)C)NC(=O)OCc1ccccc1)C(=O)N[C@H](/C=C/S(=O)(=O)N1CCOCC1)CC(=O)OC(C)(C)C [Compound 66, Z-Asp(β-tert-Butyl)-Ala(2′-quinolyl)-Val-Asp(β-tert-Butyl)morpholine Vinyl Sulfone] | > 3.33 µM |  | 0.2 µM | > 3.33 µM | > 3.33 µM | > 3.33 µM | 1.4 µM |  |  | 35% | 
